Reference: patent US11435353B2, “Method of evaluating drug resistance and treatment effect” (priority 2018, dated 2022)
Entries after “also recorded” stand apart in the source; their conditions may differ. Where two headings read alike, the source gives them in different places.

Assays:
[1] = system: ER+ breast cancer cell (ZR-75-1); test: MTT assay of cytotoxic effects in ZR-75-1 cells; conditions: short-term treatment, FIG. 5C/5D
Method: (§6) Cell viability was analyzed by MTT (3, [4,5-dimethylthiazol-2-yl-]diphenyltetrazolium bromide, 5 mg/ml). Cells were seeding in 96-well plates and incubated overnight, and then changed into the fresh medium containing indicated concentrations of tamoxifen for 72 h. 50 μl of MTT was added to each well and incubated for 2 h, and the purple formazan crystals were dissolved in DMSO. The absorbance was measured by a microplate reader at a wavelength of 570 nm.

cyclin D1 = test: qRT-PCR and western blot of cyclin D1; type: cell-based; conditions: MCF-7 cells, 2 μM, 48 hours, FIG. 8A/8B
Method: (§1) Then, the tamoxifen-sensitive cells (MCF-7) were further collected to analyze protein expression by using a western blot.
(§2) Whole cell extracts were lysed in RIPA buffer and collected to fractionate by SDSPAGE, and then transferred onto PVDF membranes according to the manufacture's protocols (Bio-Rad). After blocking with 5% nonfat milk in TBST for 60 min, membranes were washed and incubated with primary antibodies at 4° C. overnight. Membranes were washed three times for 10 min and incubated with secondary antibodies for 60 min. Protein expressions were visualized by ECL system according to the manufacture's protocols.
(§3) Total RNA was isolated by using Trizol reagent according to the manufacturer's instructions. 200 ng of RNA was reverse transcribed to complementary DNA (cDNA) by using a reverse transcriptase enzyme, a random primer, dNTPs and an RNase inhibitor. Real-time PCR was performed by Applied Biosystem Step One Real-time PCR system (Applied Biosystems) according to manufacturer's protocols. Samples run in three independent experiments and GAPDH or α-tubulin were used as an internal control to normalize the target genes.

TRBP protein = test: Cycloheximide chase, TRBP protein stability by western blot; type: cell-based
Method: (§4) Then, in order to investigate changes in TRBP protein stability, the […] of TRBP was analyzed by further treating the tamoxifen-resistant cell (MCF-7/TR) and the tamoxifen-resistant cell (MCF-7/TR1) with 50 μg/ml cycloheximide (CHX) to block de novo protein synthesis, followed by harvesting the tamoxifen-resistant cell (MCF-7/TR) and the tamoxifen-resistant cell (MCF-7/TR1) at an indicated time point to analyze the expression of TRBP in the tamoxifen-resistant cell (MCF-7/TR) and the tamoxifen-resistant cell through another western blot, wherein the degradation rates were plotted for the average±SEM of at least three independent experiments and analyzed by two-way ANOVA (*P≤0.05 and **P≤0.01).
as §2

[2] = system: ER+ breast cancer cell (ZR-75-1)
Method: as §6

TRBP mRNA = test: qRT-PCR of TRBP mRNA level; type: cell-based; conditions: FIG. 7A
Method: as §4, §3

SOX2 protein [3] = test: Western blot of SOX2 protein expression; type: cell-based
Method: In order to identify the downstream modulator of TRBP, the tamoxifen-sensitive cells (MCF-7) were treated with 2 μM tamoxifen for 48 hours, and then RNA of the tamoxifen-sensitive cell (MCF-7) was isolated to analyze the mRNA expression of stem cell markers by using a reverse-transcription PCR (qRT-PCR), with the aforementioned experiment being repeated at least three times, and with ATP5E being used as a positive control for tamoxifen treatment (*P<0.05) by t-test. Then, the tamoxifen-sensitive cells (MCF-7) were further collected to analyze protein expression by using a western blot. Accordingly, we determined the expression of several key factors that have been reported to modulate self-renewal and drug resistance of cancer cells, including SOX2, Nanog, OCT4, Lin28A, CCND1.
(§5) On the other hands, similar experiments above are also performed to identify the upstream modulator of TRBP.
as §2

Merlin = test: Western blot of Merlin expression after tamoxifen treatment; type: cell-based; conditions: increasing concentrations, 48 hours
Method: as §2

p-AKT = test: Western blot of p-AKT; type: cell-based; conditions: left of FIG. 8K
Method: as §5, §2

TRBP = test: Western blot of TRBP expression after tamoxifen or 4OHT treatment; type: cell-based; conditions: 48 hours
Method: as §5, §2

[4] = system: tamoxifen-resistant cell (MCF-7/TR)
Method: as §6

SOX2 protein [5] = test: SOX2 protein stability; type: cell-based
SOX2 mRNA = test: qRT-PCR of stem cell marker mRNA (SOX2); type: cell-based; conditions: MCF-7 cells, 2 μM, 48 hours, FIG. 8A/8F
Method: as §1
After that, RNA was isolated from the tamoxifen-sensitive cell (MCF-7) to analyze the mRNA expression of SOX2 by using a reverse-transcription PCR (qRT-PCR).
as §3

Compound	cytotoxic effects (MTT) [1]	cyclin D1 expression (cyclin D1)	degradation of TRBP protein (TRBP protein; tamoxifen-treated vs untreated MCF-7, 50 μg/ml cycloheximide, FIG. 7B)	degradation of TRBP protein (TRBP protein; tamoxifen-treated vs untreated MCF-7/TR1, 50 μg/ml cycloheximide, FIG. 7C)	cytotoxic effects (MTT) [2]	TRBP mRNA level (TRBP mRNA; MCF-7/TR1 cells)	TRBP mRNA level (TRBP mRNA; MCF-7/TR cells pretreated with 2 μM tamoxifen for 48 hours)	expression of SOX2 protein (SOX2 protein [3]; MCF-7 cells, 2 μM, 48 hours, FIG. 8B)	SOX2 level after tamoxifen treatment (SOX2 protein [3]; right of FIG. 8K)	expression of Merlin (Merlin; MCF-7 cells, FIG. 7D)	expression of Merlin (Merlin; ZR-75-1 cells, FIG. 7E)	p-AKT level after tamoxifen treatment (p-AKT)	TRBP expression (TRBP; ER- Hs578T cells, FIG. 5E)	TRBP expression (TRBP; ER- MDA-MB-231 cells, FIG. 5E)	TRBP expression (TRBP; ER- SKBR3 cells, FIG. 5E)	TRBP expression (TRBP; MCF-7/TR cells, increasing concentrations, FIG. 5A/5B)	cytotoxic effects (MTT) [4]	SOX2 protein degradation (SOX2 protein [5]; tamoxifen-treated vs untreated MCF-7, FIG. 8G)	SOX2 protein degradation (SOX2 protein [5]; tamoxifen-treated vs untreated MCF-7/TR, FIG. 8H)	expression of SOX2 mRNA (SOX2 mRNA)
4-hydroxytamoxifen	noncytotoxic	–	–	–	–	–	–	–	–	–	–	–	–	–	–	–	–	–	–	–
CC/C(=C(\c1ccccc1)c1ccc(OCCN(C)C)cc1)c1ccccc1 [tamoxifen]	–	reduction of cyclin D1	significant prolonged degradation of TRBP protein	significant prolonged degradation of TRBP protein	noncytotoxic	not significantly changed	not significantly changed	upregulated expression of SOX2 protein	elevated-SOX2 level	suppressed in a dose-dependent manner	suppressed in a dose-dependent manner	elevated-AKT level	no significant induction of TRBP	no significant induction of TRBP	no significant induction of TRBP	induced the TRBP expression in a dose-dependent manner	without inducing any significant cytotoxic effects	degraded more slowly	degraded more slowly	upregulated; also recorded: enhanced SOX2 expression
